Like-named read-outs stand apart in the source and are kept apart here.
Assays:
[1] = system: Normal human HEPM fibroblasts; assay: Cell Mat Assay, normal cell mat; assay type: cell-based; details: normal monolayer
[2] = system: Ras-CVLS processing in COS monkey kidney cells; assay: COS cell assay: inhibition of Ras-CVLS processing (Western blot); assay type: cell-based
Text: • 1. In vitro enzyme assays: Inhibition of farnesyl protein transferase and geranylgeranyl protein transferase. Both farnesyl protein transferase (FPT) and geranylgeranyl protein transferase (GGPT) I were partially purified from rat brain by ammonium sulfate fractionation followed by Q-Sepharose (Pharmacia, Inc.) anion exchange chromatography essentially as described by Yokoyama et al (Yokoyama, K., et al., (1991), A protein geranylgeranyltransferase from bovine brain: Implications for protein prenylation specificity, Proc. Natl. Acad. Sci USA 88: 5302-5306, the disclosure of which is incorporated herein by reference thereto). Human farnesyl protein transferase was also expressed in E. coli, using cDNA clones encoding both the a and b subunits. The methods used were similar to those published (Omer, C. et al., (1993), Characterization of recombinant human farnesyl protein transferase: Cloning, expression, farnesyl diphosphate binding, and functional homology with yeast prenyl-protein transferases, Biochemistry 32:5167-5176). Human farnesyl protein transferase was partially-purified from the soluble protein fraction of E. coli as described above. […] Two forms of val^12-Ha-Ras protein were prepared as substrates for these enzymes, differing in their carboxy terminal sequence. One form terminated in cysteine-valine-leucine-serine (Ras-CVLS) the other in cystein-valine-leucine-leucine (Ras-CVLL). Ras-CVLS is a substrate for the farnesyl protein transferase while Ras-CVLL is a substrate for geranylgeranyl protein transferase I. The cDNAs encoding these proteins were constructed so that the proteins contain an amino-terminal extension of 6 histidine residues. Both proteins were expressed in Escherichia coli and purified using metal chelate affinity chromatography. The radiolabelled isoprenyl pyrophosphate substrates, [^3H]farnesyl pyrophosphate and [^3H]geranylgeranyl pyrophosphate, were purchased from DuPont/New England Nuclear. Several methods for measuring farnesyl protein transferase activity have been described (Reiss et al 1990, Cell 62: 81; Schaber et al 1990, J. Biol. Chem. 265: 14701; Manne et al 1990, PNAS 87: 7541; and Barbacid & Manne 1993, U.S. Patent No. 5,185,248). […] The reaction was allowed to proceed for 30 minutes at room temperature and then stopped with 0.5 ml of 4% sodium dodecyl sulfate (SDS) followed by 0.5 ml of cold 30% TCA. Samples were allowed to sit on ice for 45 minutes and precipitated Ras protein was then collected on GF/C filter paper mats using a Brandel cell harvester. Filter mats were washed once with 6% TCA, 2% SDS and radioactivity was measured in a Wallac 1204 Betaplate BS liquid scintillation counter. Percent inhibition was calculated relative to the DMSO vehicle control. The geranylgeranyl protein transferase I assay was essentially identical to the farnesyl protein transferase assay described above, with two exceptions: [^3H]geranylgeranylpyrophosphate replaced farnesyl pyrophosphate as the isoprenoid donor and Ras-CVLL was the protein acceptor. […] Cell-Based Assay: Transient expression of val^12-Ha-Ras-CVLS and val^12-Ha-Ras-CVLL in COS monkey kidney cells: Effect of farnesyl protein transferase inhibitors on Ras processing and on disordered cell growth induced by transforming Ras. COS monkey kidney cells were transfected by electroporation with the plasmid pSV-SPORT (Gibco/BRL) containing a cDNA insert encoding either Ras-CVLS or Ras-CVLL, leading to transient overexpression of a Ras substrate for either farnesyl protein transferase or geranylgeranyl protein transferase I, respectively (see above). Following electroporation, cells were plated into 6-well tissue culture dishes containing 1.5 ml of Dulbecco's-modified Eagle's media (GIBCO, Inc.) supplemented with 10% fetal calf serum and the appropriate farnesyl protein transferase inhibitors. After 24 hours, media was removed and fresh media containing the appropriate drugs was re-added.

[3] = system: SW620-BAG human colon carcinoma cells expressing an activated K-ras gene; assay: Cell Mat Assay, SW620 tumor cells; assay type: cell-based; details: Mat assay
[4] = system: DLD-1-BAG human colon carcinoma cells expressing as activated K-ras gene; assay: Cell Mat Assay, DLD-1 tumor cells; assay type: cell-based; details: Mat assay
[5] = biological target: T1, geranylgeranyl protein transferase (GGPT) I (Rattus norvegicus, UniProt P53610+Q04631); assay: In vitro enzyme assay: inhibition of geranylgeranyl protein transferase I (Ras-CVLL as acceptor); assay type: biochemical; details: Table 2; Ras-CVLL as isoprenoid acceptor
T1 construct: geranylgeranyl protein transferase (GGPT) I were partially purified from rat brain; from tissue; host or cells: rat brain
Text: • 1. In vitro enzyme assays: Inhibition of farnesyl protein transferase and geranylgeranyl protein transferase. Both farnesyl protein transferase (FPT) and geranylgeranyl protein transferase (GGPT) I were partially purified from rat brain by ammonium sulfate fractionation followed by Q-Sepharose (Pharmacia, Inc.) anion exchange chromatography essentially as described by Yokoyama et al (Yokoyama, K., et al., (1991), A protein geranylgeranyltransferase from bovine brain: Implications for protein prenylation specificity, Proc. Natl. Acad. Sci USA 88: 5302-5306, the disclosure of which is incorporated herein by reference thereto). Human farnesyl protein transferase was also expressed in E. coli, using cDNA clones encoding both the a and b subunits. The methods used were similar to those published (Omer, C. et al., (1993), Characterization of recombinant human farnesyl protein transferase: Cloning, expression, farnesyl diphosphate binding, and functional homology with yeast prenyl-protein transferases, Biochemistry 32:5167-5176). Human farnesyl protein transferase was partially-purified from the soluble protein fraction of E. coli as described above. The tricyclic farnesyl protein transferase inhibitors disclosed herein inhibited both human and rat enzyme with similar potencies. Two forms of val^12-Ha-Ras protein were prepared as substrates for these enzymes, differing in their carboxy terminal sequence. One form terminated in cysteine-valine-leucine-serine (Ras-CVLS) the other in cystein-valine-leucine-leucine (Ras-CVLL). Ras-CVLS is a substrate for the farnesyl protein transferase while Ras-CVLL is a substrate for geranylgeranyl protein transferase I. The cDNAs encoding these proteins were constructed so that the proteins contain an amino-terminal extension of 6 histidine residues. Both proteins were expressed in Escherichia coli and purified using metal chelate affinity chromatography. The radiolabelled isoprenyl pyrophosphate substrates, [^3H]farnesyl pyrophosphate and [^3H]geranylgeranyl pyrophosphate, were purchased from DuPont/New England Nuclear. Several methods for measuring farnesyl protein transferase activity have been described (Reiss et al 1990, Cell 62: 81; Schaber et al 1990, J. Biol. Chem. 265: 14701; Manne et al 1990, PNAS 87: 7541; and Barbacid & Manne 1993, U.S. Patent No. 5,185,248). The activity was assayed by measuring the transfer of [^3H]farnesyl from [^3H]farnesyl pyrophosphate to Ras-CVLS using conditions similar to those described by Reiss et al. 1990 (Cell 62: 81) The reaction mixture contained 40 mM Hepes, pH 7.5; 20 mM magnesium chloride; 5 mM dithiothreitol; 0.25 µM [^3H]farnesyl pyrophosphate; […] Q-Sepharose-purified farnesyl protein transferase; the indicated concentration of tricyclic compound or dimethylsulfoxide (DMSO) vehicle control (5% DMSO final); and […] Ras-CVLS in a total volume of […]. The reaction was allowed to proceed for 30 minutes at room temperature and then stopped with 0.5 ml of 4% sodium dodecyl sulfate (SDS) followed by 0.5 ml of cold 30% TCA. Samples were allowed to sit on ice for 45 minutes and precipitated Ras protein was then collected on GF/C filter paper mats using a Brandel cell harvester. Filter mats were washed once with 6% TCA, 2% SDS and radioactivity was measured in a Wallac 1204 Betaplate BS liquid scintillation counter. Percent inhibition was calculated relative to the DMSO vehicle control. The geranylgeranyl protein transferase I assay was essentially identical to the farnesyl protein transferase assay described above, with two exceptions: [^3H]geranylgeranylpyrophosphate replaced farnesyl pyrophosphate as the isoprenoid donor and Ras-CVLL was the protein acceptor. This is similar to the assay reported by Casey et al (Casey, P.J., et al., (1991), Enzymatic modification of proteins with a geranylgeranyl isoprenoid, Proc. Natl. Acad. Sci, USA 88: 8631-8635, the disclosure of which is incorporated herein by reference thereto). • 2. […]

[6] = system: T24-BAG4 human bladder carcinoma cells expressing an activated H-ras gene; assay: Cell Mat Assay, T24 tumor cells; assay type: cell-based; details: read-out: Tumor (T-24) IC50
[7] = system: DLD-1 (human colon carcinoma cells, ATCC # CCL 221); assay: In Vivo Anti-Tumor Studies, subcutaneous DLD-1 tumors; design: species or system athymic nu/nu female mice; details: Mus musculus, DLD-1, po, QID, 4 weeks, range over the listed compounds; for inhibition in vivo at 10 mg/kg: 10 mg/kg p.o.; for inhibition in vivo at 50 mg/kg: 50 mg/kg p.o.
Text: Tumor cells (5 X 10^5 to 8 X 10^6) of DLD-1 (human colon carcinoma cells, ATCC # CCL 221) are innolculated subcutaneously into the flank of 5-6 week o;d athymic nu/nu female mice.

[8] = biological target: T2, farnesyl protein transferase (FPT) (Rattus norvegicus, UniProt Q02293+Q04631); assay: In vitro enzyme assay: inhibition of farnesyl protein transferase (transfer of [3H]farnesyl to Ras-CVLS); assay type: biochemical
T2 construct: were partially purified from rat brain by ammonium sulfate fractionation followed by Q-Sepharose; from tissue; host or cells: rat brain
Description: • 1. In vitro enzyme assays: Inhibition of farnesyl protein transferase and geranylgeranyl protein transferase. […] Human farnesyl protein transferase was also expressed in E. coli, using cDNA clones encoding both the a and b subunits. […] Human farnesyl protein transferase was partially-purified from the soluble protein fraction of E. coli as described above. […] Two forms of val^12-Ha-Ras protein were prepared as substrates for these enzymes, differing in their carboxy terminal sequence. One form terminated in cysteine-valine-leucine-serine (Ras-CVLS) the other in cystein-valine-leucine-leucine (Ras-CVLL). Ras-CVLS is a substrate for the farnesyl protein transferase while Ras-CVLL is a substrate for geranylgeranyl protein transferase I. The cDNAs encoding these proteins were constructed so that the proteins contain an amino-terminal extension of 6 histidine residues. Both proteins were expressed in Escherichia coli and purified using metal chelate affinity chromatography. The radiolabelled isoprenyl pyrophosphate substrates, [^3H]farnesyl pyrophosphate and [^3H]geranylgeranyl pyrophosphate, were purchased from DuPont/New England Nuclear. […] The reaction was allowed to proceed for 30 minutes at room temperature and then stopped with 0.5 ml of 4% sodium dodecyl sulfate (SDS) followed by 0.5 ml of cold 30% TCA. Samples were allowed to sit on ice for 45 minutes and precipitated Ras protein was then collected on GF/C filter paper mats using a Brandel cell harvester. […] Percent inhibition was calculated relative to the DMSO vehicle control. The geranylgeranyl protein transferase I assay was essentially identical to the farnesyl protein transferase assay described above, with two exceptions: [^3H]geranylgeranylpyrophosphate replaced farnesyl pyrophosphate as the isoprenoid donor and Ras-CVLL was the protein acceptor. […] Cell-Based Assay: Transient expression of val^12-Ha-Ras-CVLS and val^12-Ha-Ras-CVLL in COS monkey kidney cells: Effect of farnesyl protein transferase inhibitors on Ras processing and on disordered cell growth induced by transforming Ras. COS monkey kidney cells were transfected by electroporation with the plasmid pSV-SPORT (Gibco/BRL) containing a cDNA insert encoding either Ras-CVLS or Ras-CVLL, leading to transient overexpression of a Ras substrate for either farnesyl protein transferase or geranylgeranyl protein transferase I, respectively (see above). Following electroporation, cells were plated into 6-well tissue culture dishes containing 1.5 ml of Dulbecco's-modified Eagle's media (GIBCO, Inc.) supplemented with 10% fetal calf serum and the appropriate farnesyl protein transferase inhibitors. After 24 hours, media was removed and fresh media containing the appropriate drugs was re-added. 48 hours after electroporation cells were examined under the microscope to monitor disordered cell growth induced by transforming Ras. Cells expressing transforming Ras become more rounded and refractile and overgrow the monolayer, reminiscent of the transformed phenotype. Cells were then photographed, washed twice with 1 ml of cold phosphate-buffered saline (PBS) and removed from the dish by scraping with a rubber policeman into 1 ml of a buffer containing 25 mM Tris, pH 8.0; 1 mM ethylenediamine tetraacetic acid; 1 mM phenylmethylsulfonyl fluoride; […] leupeptin; and 0.1 mM pepstatin. Cells were lysed by homogenization and cell debris was removed by centrifugation at 2000 x g for 10 min. Cellular protein was precipitated by addition of ice-cold trichloroacetic acid and redissolved in […] of SDS-electrophoresis sample buffer. […] Proteins resolved on the gels were electroblotted onto nitrocellulose membranes for immunodetection. […] After washing, membranes were incubated for one hour at room temperature with a 1:5000 dilution of secondary antibody, rabbit anti-rat IgG conjugated to horseradish peroxidase, in PBS containing 1% fetal calf serum.

[9] = Table 2, comparison with GGPT, read-out: ENZYME INHIBITION FPT IC50

Row | Compound | IC50 [1] | IC50 [2] | IC50 [3] | IC50 [4] | IC50 [5] | IC50 [6] | inhibition in vivo at 10 mg/kg [7] | inhibition in vivo at 50 mg/kg [7] | IC50 ([8]; FPT IC50, Table 1, partially purified rat brain FPT, Ras-CVLS) | IC50 [8, 9] | IC50 ([1]; Homo sapiens, Fibroblast) | IC50 ([8]; Table 1, partially purified rat brain FPT, Ras-CVLS, read-out: FPT IC50) | IC50 ([6]; Homo sapiens)
1 | NC(=O)N1CCC(CC(=O)N2CCC(=C3c4ncc(Br)cc4CCc4cc(Cl)cc(Br)c43)CC2)CC1 (single isomer, unassigned) [Example 8B] | > 25 µM | 0.28 µM | 3.1 µM | < 1.6 µM | > 60 µM | < 1.6 µM | 7 to 50% | 35.4 to 83% |  |  |  |  | 
2 | O=C(Cc1cc[n+]([O-])cc1)N1CCC(=C2c3ncc(Br)cc3CCc3cc(Cl)cc(Br)c32)CC1 (single isomer, unassigned) [Example 7B] |  |  |  |  | > 66 µM |  |  |  | < 0.003 µM | < 0.003 µM |  |  | 
3 | NC(=O)N1CCC(CC(=O)N2CCC(C3c4ccc(Cl)cc4CCc4cc(Br)cnc43)CC2)CC1 (stereo not drawn) [Example 4] |  |  |  |  | > 35.7 µM |  | 7 to 50% | 35.4 to 83% |  | 0.046 µM | > 25 µM | 0.046 µM | 3.1 µM

From EP1019392B1, “TRICYCLIC AMIDES USEFUL FOR INHIBITION OF G-PROTEIN FUNCTION AND FOR TREATMENT OF PROLIFERATIVE DISEASES” (SCHERING CORPORATION, priority 1995, dated 1997)
